Type in all cases: ADME, organism-based
Details in all cases: in vivo

The nature of series [1]: AUC in rat at 2 mg/kg, po.
A short description of series [2]: Cmax in rat at 2 mg/kg, po. On the set-up: dose 2 mg/kg, route oral.
The nature of series [3]: Half life in rat at 2 mg/kg, po.
The nature of series [4]: AUC(0 to infinity) in mouse at 30 mg/kg, po. On the set-up: dose 30 mg/kg, route oral, time infinity.
A short description of series [5]: Oral bioavailability in rat at 2 mg/kg.
The nature of series [6]: Clearance in rat at 1 mg/kg, iv.
Series [7] can be described thus: Volume of distribution in rat at 1 mg/kg, iv.
A short description of series [8]: Half life in mouse at 30 mg/kg, po.
Series [9] in a line: Half life in rat at 1 mg/kg, iv.

Molecules are shown by their SMILES.

On to `O=C(N[C@H]1COc2ccccc2NC1=O)c1cc(Cc2ccccc2)on1`, for which the AUC in series [1] amounted to 2200 ng·h/mL. This molecule also returned a Cmax in series [2] of 810 ng/mL. Moreover, the half-life in [3] is 2.9 h.

Regarding `CN1C(=O)[C@@H](NC(=O)c2cc(Cc3ccccc3)on2)CNc2ccccc21`, the half-life in series [3] is 1.9 h; in [8] it was 1.5 h; in series [9], 0.85 h. The molecule also returned an AUC(0-inf) in series [4] of 2000 ng·h/mL. Further, in [5], the bioavailability was 75%. Also, the clearance in series [6] was found to be 57 mL/min/kg. Moreover, the volume of distribution (Vd) in series [7] was 2.2 L/kg.
